Key:
Experiment in all cases: Test Example 10: agar medium with aztreonam or ceftazidime
B. thuringiensis = conditions: NBRC101235, 22 hours
B. cereus = conditions: 22 hours
E. amnigenus = conditions: 22 hours; for Number of colonies: ATCC33072
E. coli = type: cell-based; conditions: 22 hours; for Number of colonies: ATCC8739

C[C@H]1[C@H](NC(=O)/C(=N\OC(C)(C)C(=O)O)c2csc(N)n2)C(=O)N1S(=O)(=O)O [aztreonam]
+: Number of colonies (B. thuringiensis; Aztreonam 0.05 mg, 10^3 cfu/mL) | Number of colonies (B. thuringiensis; Aztreonam 0.05 mg, 10^4 cfu/mL) | Number of colonies (B. thuringiensis; Aztreonam 0.05 mg, 10^5 cfu/mL) | Number of colonies (B. thuringiensis; Aztreonam 0.5 mg, 10^3 cfu/mL) | Number of colonies (B. thuringiensis; Aztreonam 0.5 mg, 10^4 cfu/mL) | Number of colonies (B. thuringiensis; Aztreonam 0.5 mg, 10^5 cfu/mL) | Number of colonies (B. thuringiensis; Aztreonam 5 mg, 10^3 cfu/mL) | Number of colonies (B. thuringiensis; Aztreonam 5 mg, 10^4 cfu/mL) | Number of colonies (B. thuringiensis; Aztreonam 5 mg, 10^5 cfu/mL) | Number of colonies (B. cereus; ATCC11778, Aztreonam 0.05 mg, 10^3 cfu/mL) | Number of colonies (B. cereus; ATCC11778, Aztreonam 0.05 mg, 10^4 cfu/mL) | Number of colonies (B. cereus; ATCC11778, Aztreonam 0.05 mg, 10^5 cfu/mL) | Number of colonies (B. cereus; ATCC11778, Aztreonam 0.5 mg, 10^3 cfu/mL) | Number of colonies (B. cereus; ATCC11778, Aztreonam 0.5 mg, 10^4 cfu/mL) | Number of colonies (B. cereus; ATCC11778, Aztreonam 0.5 mg, 10^5 cfu/mL) | Number of colonies (B. cereus; ATCC11778, Aztreonam 5 mg, 10^3 cfu/mL) | Number of colonies (B. cereus; ATCC11778, Aztreonam 5 mg, 10^4 cfu/mL) | Number of colonies (B. cereus; ATCC11778, Aztreonam 5 mg, 10^5 cfu/mL) | Number of colonies (B. cereus; ATCC19637, Aztreonam 0.05 mg, 10^3 cfu/mL) | Number of colonies (B. cereus; ATCC19637, Aztreonam 0.05 mg, 10^4 cfu/mL) | Number of colonies (B. cereus; ATCC19637, Aztreonam 0.05 mg, 10^5 cfu/mL) | Number of colonies (B. cereus; ATCC19637, Aztreonam 0.5 mg, 10^3 cfu/mL) | Number of colonies (B. cereus; ATCC19637, Aztreonam 0.5 mg, 10^4 cfu/mL) | Number of colonies (B. cereus; ATCC19637, Aztreonam 0.5 mg, 10^5 cfu/mL) | Number of colonies (B. cereus; ATCC19637, Aztreonam 5 mg, 10^3 cfu/mL) | Number of colonies (B. cereus; ATCC19637, Aztreonam 5 mg, 10^4 cfu/mL) | Number of colonies (B. cereus; ATCC19637, Aztreonam 5 mg, 10^5 cfu/mL)
3: Number of colonies (B. thuringiensis; Aztreonam 0.05 mg, 10^1 cfu/mL) | Number of colonies (B. cereus; ATCC19637, Aztreonam 0.05 mg, 10^1 cfu/mL)
12: Number of colonies (B. cereus; ATCC11778, Aztreonam 0.5 mg, 10^2 cfu/mL)
16: Number of colonies (B. thuringiensis; Aztreonam 0.05 mg, 10^2 cfu/mL) | Number of colonies (B. thuringiensis; Aztreonam 5 mg, 10^2 cfu/mL)
13: Number of colonies (B. thuringiensis; Aztreonam 0.5 mg, 10^2 cfu/mL) | Number of colonies (B. cereus; ATCC11778, Aztreonam 0.05 mg, 10^2 cfu/mL)
17: Number of colonies (B. cereus; ATCC11778, Aztreonam 5 mg, 10^2 cfu/mL)
−: Number of colonies (E. amnigenus; Aztreonam 0.05 mg, 10^1 cfu/mL) | Number of colonies (E. amnigenus; Aztreonam 0.05 mg, 10^2 cfu/mL) | Number of colonies (E. amnigenus; Aztreonam 0.05 mg, 10^3 cfu/mL) | Number of colonies (E. amnigenus; Aztreonam 0.05 mg, 10^4 cfu/mL) | Number of colonies (E. amnigenus; Aztreonam 0.5 mg, 10^1 cfu/mL) | Number of colonies (E. amnigenus; Aztreonam 0.5 mg, 10^2 cfu/mL) | Number of colonies (E. amnigenus; Aztreonam 0.5 mg, 10^3 cfu/mL) | Number of colonies (E. amnigenus; Aztreonam 0.5 mg, 10^4 cfu/mL) | Number of colonies (E. amnigenus; Aztreonam 0.5 mg, 10^5 cfu/mL) | Number of colonies (E. amnigenus; Aztreonam 5 mg, 10^1 cfu/mL) | Number of colonies (E. amnigenus; Aztreonam 5 mg, 10^2 cfu/mL) | Number of colonies (E. amnigenus; Aztreonam 5 mg, 10^3 cfu/mL) | Number of colonies (E. amnigenus; Aztreonam 5 mg, 10^4 cfu/mL) | Number of colonies (E. amnigenus; Aztreonam 5 mg, 10^5 cfu/mL) | Number of colonies (E. coli; Aztreonam 0.05 mg, 10^1 cfu/mL) | Number of colonies (E. coli; Aztreonam 0.05 mg, 10^2 cfu/mL) | Number of colonies (E. coli; Aztreonam 0.05 mg, 10^3 cfu/mL) | Number of colonies (E. coli; Aztreonam 0.05 mg, 10^4 cfu/mL) | Number of colonies (E. coli; Aztreonam 0.05 mg, 10^5 cfu/mL) | Number of colonies (E. coli; Aztreonam 0.5 mg, 10^1 cfu/mL) | Number of colonies (E. coli; Aztreonam 0.5 mg, 10^2 cfu/mL) | Number of colonies (E. coli; Aztreonam 0.5 mg, 10^3 cfu/mL) | Number of colonies (E. coli; Aztreonam 0.5 mg, 10^4 cfu/mL) | Number of colonies (E. coli; Aztreonam 0.5 mg, 10^5 cfu/mL) | Number of colonies (E. coli; Aztreonam 5 mg, 10^1 cfu/mL) | Number of colonies (E. coli; Aztreonam 5 mg, 10^2 cfu/mL) | Number of colonies (E. coli; Aztreonam 5 mg, 10^3 cfu/mL) | Number of colonies (E. coli; Aztreonam 5 mg, 10^4 cfu/mL) | Number of colonies (E. coli; Aztreonam 5 mg, 10^5 cfu/mL)
2: Number of colonies (B. thuringiensis; Aztreonam 5 mg, 10^1 cfu/mL) | Number of colonies (B. cereus; ATCC11778, Aztreonam 5 mg, 10^1 cfu/mL) | Number of colonies (B. cereus; ATCC19637, Aztreonam 0.05 mg, 10^2 cfu/mL) | Number of colonies (E. amnigenus; Aztreonam 0.05 mg, 10^5 cfu/mL)
1: Number of colonies (B. thuringiensis; Aztreonam 0.5 mg, 10^1 cfu/mL) | Number of colonies (B. cereus; ATCC11778, Aztreonam 0.05 mg, 10^1 cfu/mL) | Number of colonies (B. cereus; ATCC11778, Aztreonam 0.5 mg, 10^1 cfu/mL) | Number of colonies (B. cereus; ATCC19637, Aztreonam 0.5 mg, 10^1 cfu/mL) | Number of colonies (B. cereus; ATCC19637, Aztreonam 5 mg, 10^1 cfu/mL)
10: Number of colonies (B. cereus; ATCC19637, Aztreonam 0.5 mg, 10^2 cfu/mL)
5: Number of colonies (B. cereus; ATCC19637, Aztreonam 5 mg, 10^2 cfu/mL)
suppressed: formation of a white colony (E. amnigenus; added to TSA-BC, 30° C.) | formation of a white colony (E. coli; added to TSA-BC, 30° C.)

From US12618095B2, “Medium for Bacillus cereus group detection” (SHIMADZU DIAGNOSTICS CORPORATION, priority 2020, dated 2026)
